Test [1] concerns canonical Wnt pathway (TCF binding sites, TopFlash). Kind of test: TopFlash/FopFlash luciferase reporter assay in CJ7 cells (MESCs). In kind it is cell-based, mouse. Conditions: FIG. 2b. On the procedure: Luciferase assay. […] Test compounds were added 24 hrs after transfection. Following incubation for 24 hrs, cells were harvested, and analyzed by the dual luciferase reporter assay system (Promega) using Lumat (Berthold Technologies). Each value was standardized by Renilla luciferase activity.
The canonical Wnt signal occurs through binding of the Wnt protein to the Frizzled receptor at cell surface. It is followed by inactivation of GSK-3, leading to accumulation of β-catenin in the nucleus that activates the transcription of Wnt target genes in collaboration with TCFs^18,19. Alternatively, Wnt signaling can be activated by direct, intracellular inhibition of the GSK-3 function using specific inhibitors^20. […] First we examined whether mouse and human ESCs were capable of transducing Wnt signaling under the influence of 6-bromoindirubin-3′-oxime. […] We then evaluated expression of β-catenin at the cellular level as a read-out of the activation status of the canonical Wnt pathway in HESCs.
A general note: In a reporter assay the amount or activity of a reporter protein is the signal.

In the next test the test system is β-catenin. The test is described as follows: β-catenin immunofluorescence confocal analysis in HESCs. In kind it is cell-based, human. Conditions: compared to non-conditioned medium treated cells, FIG. 2c. The procedure:
(§1) Cell culture. Human embryonic stem cells (HESCs) lines were provided by WiCell Research Institute (H1 line)^5 and BresaGen Inc. (BGN1 and BGN2 lines). H1 cells were cultivated on irradiated mouse embryonic fibroblasts (MEFs) in medium consisting of 80% DMEM/F12 medium, 20% knockout serum replacement (KSR), 1 mM L-glutamine, 1% non-essential amino acids, 0.1 mM β-mercaptoethanol, and 4 ng/ml basic FGF (all from Invitrogen). […] Subsequently, HESCs were cultured on Matrigel (BD biosciences) in medium conditioned by MEFs, and passaged several times until colonies became free from contaminating MEFs as described before^9.
Immunofluorescence. […] For the quantitative image analysis, fluorescent images from triplicate samples were taken by the Discovery1 system (Universal Imaging Corporation). The fluorescent objects were selected by the threshold function and evaluated in five regions of each well by quantification of pixel intensities and the object size by using MetaMorph software (Universal Imaging Corporation).

A further test has as its system cyclin D1. Kind of test: cyclin D1 immunofluorescence in HESCs. In kind it is cell-based, human. Conditions: HESCs (BGN2); non-CM; 6-bromoindirubin-3′-oxime 1.0 μM or Wnt3a protein 100 ng; FIG. 7. The procedure:
Immunofluorescence. HESCs were grown in conditioned medium (CM), non-CM, non-CM containing Me 6-bromoindirubin-3′-oxime (1.0 μM), non-CM containing 6-bromoindirubin-3′-oxime (1.0 μM) or non-CM containing recombinant mouse Wnt3a protein (100 ng/ml, R&D systems) for 5 d. Cells were fixed in 4% paraformaldehyde for 20 min at room temperature and incubated overnight at 4° C. with primary antibodies against cyclin D1 (Santa Cruz Technology, Santa Cruz, Calif.). Antigens were localized by using goat anti-rabbit IgG conjugated to Cy3 (Zymed laboratories).

For the next test, the system named is HESCs (H1, BGN1). The test is described as follows: Feeder-free culture of HESCs, undifferentiated morphology. Conditions: feeder-free, non-conditioned medium; 7 d; 6-bromoindirubin-3′-oxime and Me analogue 2 μM, LiCl 5 mM, Wnt3a protein. In kind it is cell-based, human. The procedure: as §1
The test system of a further test is Oct-3/4. Kind of test: Oct-3/4 immunocytochemistry in HESCs. In kind it is cell-based, human. The procedure: as §1
Immunofluorescence. Cells were fixed in 4% paraformaldehyde for 20 min at room temperature and incubated overnight at 4° C. with primary antibodies against Oct-4 (BD Biosciences), β-catenin (BD Biosciences), Tuj-1 (BAbCO), cytokeratin (Sigma), glial fibrillary acidic protein, GFAP, (Dako), smooth muscle actin (Research Diagnostics Inc), α-fetoprotein (α-FP, Cell Sciences) and Tromal (Developmental Studies Hybridoma Bank). For nuclear localization analysis, the fixed samples were subjected to fluorescent digital confocal imaging analysis using a Zeiss LSM 510 confocal microscope (Carl Zeiss). For mouse embryonic tissue sections, mid gestation embryos were fixed in 4% paraformaldehyde followed by paraffin embedding and tissue sectioning. After deparaffinization, tissue sections were incubated with a GFP-specific antibody (Molecular Probe) at 4° C. overnight. Antigens were localized by using goat anti-mouse IgG conjugated to Cy3 or goat anti-rabbit IgG conjugated to Cy2 (Zymed laboratories). For the quantitative image analysis, fluorescent images from triplicate samples were taken by the Discovery1 system (Universal Imaging Corporation). The fluorescent objects were selected by the threshold function and evaluated in five regions of each well by quantification of pixel intensities and the object size by using MetaMorph software (Universal Imaging Corporation).

Another test deals with HESCs (H1). The test is described as follows: Embryoid body formation from HESCs. In kind it is cell-based, human. The procedure: Embryoid body (EB) formation. HESCs were harvested by using dispase (Invitrogen), plated on non-tissue culture treated dishes (approximately 10^7 cells/10 cm dish), and grown in non-conditioned medium for 7 d as described before (Sato et al., 2003, Molecular signature of human embryonic stem cells and its comparison with the mouse. Dev Biol 260, 404-413). The number of EBs was determined by counting EBs in 20 different fields at a low magnification (10×) using an Axiovert microscope (Zeiss). Experiments were repeated at least three times, and the average number as well as standard deviation were calculated. For the detection of differentiated derivatives by immunocytochemistry, EBs (day 7) were plated on collagen-coated 12-well plates to allow them to adhere, grown in DMEM containing 10% FBS to induce further differentiation for 7 d and fixed in 4% paraformaldehyde followed by immunostaining as shown below.
RT-PCR. Two μg of total RNA extracted from EBs (day 7) or mouse embryonic fibroblasts was reverse-transcribed using ThermoScript RT-PCR system (Invitrogen) according to the manufacturer's protocol. One μl of cDNA sample was PCR amplified with each gene-specific primers (shown below) using optimized PCR cycles to obtain amplified reactions in a linear range.

For a further test, the system named is MESCs. The test is described as follows: Teratoma formation from treated MESCs in syngenic mice. In kind it is in vivo, mouse. The settings on record: MESCs grown in 1 μM, subcutaneous injection into syngenic mice. On the procedure:
Teratoma formation. We grew CJ-GFP cells at a low density (500 cells/cm^2) on gelatin-coated 10 cm dishes in medium containing 6-bromoindirubin-3′-oxime 1 μM for 7 d, then passaged cells at the same density and cultured under the same condition another 5 d to further enforce differentiation of cells. […] 6-bromoindirubin-3′-oxime-treated cells (approximately 5×10^6 cells/mouse) were subcutaneously injected into the left flank of syngenic 129 background mice. After three to five weeks, the developed teratoma (approximately 20 mm in diameter) was excised, fixed in 4% paraformaldehyde and subjected to hematoxylin and eosin staining for histological examinations.

Entries after “also recorded” stand apart in the source; their conditions may differ.

Consider `O=C1Nc2cc(Br)ccc2/C1=C1/Nc2ccccc2/C1=N\O` [6-bromoindirubin-3′-oxime], for which, in test [1] (CJ7 cells (MESCs)), the TopFlash reporter activity entry is reported as “remarkable increase in TopFlash reporter activity in a dose-dependent manner”. In test [1] (CJ7 cells, non-responsive mutated binding sites), the FopFlash reporter activity result is “no substantial change in FopFlash reporter activity”. Besides, in the test on β-catenin, the “nuclear accumulation of β-catenin” value is “nuclear accumulation of β-catenin”. Further, the “cyclin D1 expression” value with cyclin D1 was “upregulated; also recorded: up-regulated cyclin D1 expression”. For the same molecule, in the test with HESCs (H1, BGN1), the “morphology / undifferentiated phenotype of HESCs” value is recorded as “largely retained an undifferentiated morphology”. In addition, the “Oct-3/4 expression at the cellular level” value with Oct-3/4 (HESCs in non-conditioned medium, FIG. 4c) is reported as “sustained Oct-3/4 expression”. For the same molecule, the “Oct-3/4 expression by quantitative imaging analysis” value with Oct-3/4 (versus conditioned medium treatment, data not shown) is recorded as “comparable level of Oct-3/4 expression”. Further, the “lineage-specific markers of EBs by RT-PCR” value in the test on HESCs (H1) (EBs day 7, FIG. 5b) is “developed into ectoderm (NeuroD and keratin), mesoderm (T gene) and endoderm (α-fetoprotein and GATA4) derivatives”. Further, the “differentiation phenotype of adherent EBs by immunocytochemistry” value with HESCs (H1) (EBs grown under adherent condition, FIG. 5c) was “wide variety of morphology and lineage-specific molecule expression”. Moreover, the EBs formation result with HESCs (H1) (H1 cells after treatment, FIG. 5a) was “at a level comparable to that seen with conditioned medium-treated cells”. In addition, in the test on MESCs, the “teratoma formation, germ layer derivatives” value is reported as “generated teratomas consisting of all three germ layer-derived tissues”.
